ChEMBL document CHEMBL5537201, “Discovery of Unique Bis-Substituted Aromatic Amide Derivatives as Novel Highly Potent Antibiotics for Combating Methicillin-Resistant Staphylococcus aureus (MRSA)” (J Med Chem, 2024)
In brackets after ≈: the same amount, converted by molar mass. Activity calls are given as the source filed them. No cut-off for these calls is given here.

Experiments:
Staphylococcus aureus [1] = assay: Bactericidal activity against Staphylococcus aureus ATCC6538 assessed as reduction in survival rate at 5 to 10 times MIC measured within 1 hr by colony counting method; type: functional, organism-based
[2] = Hemolytic activity in rabbit Red blood cell assessed as hemolysis incubated for 1 hr by two-fold microdilution method; type: toxicity, cell-based, Oryctolagus cuniculus, Erythrocyte; conditions: red blood cells (erythrocytes)
[3] = Selectivity index, ratio of IC50 for African green monkey Vero E6 cells to MIC for Staphylococcus aureus ATCC6538; type: toxicity; conditions: read-out: Selectivity Index
Staphylococcus aureus [4] = assay: Antimicrobial activity against methicillin resistant Staphylococcus aureus clinical isolate MRS70 assessed as reduction in bacterial growth incubated for 24 hrs by two-fold broth dilution method; type: functional
Staphylococcus aureus [5] = assay: Antimicrobial activity against methicillin resistant Staphylococcus aureus clinical isolate MRS121 assessed as reduction in bacterial growth incubated for 24 hrs by two-fold broth dilution method; type: functional
Staphylococcus aureus [6] = assay: Antibiofilm activity against Staphylococcus aureus ATCC6538 assessed as reduction in biofilm formation at 1 to 32 ug/ml incubated for 20 to 22 hrs by crystal violet staining based analysis; type: functional, organism-based; conditions: dose 1-32 µg/ml, time 20-22 hrs
Staphylococcus aureus [7] = assay: Induction of membrane morphological changes in Staphylococcus aureus ATCC6538 assessed as cell rupture at 5 times of MIC measured after 0.5 hrs by FE-SEM analysis; type: functional, organism-based
Cell membrane [8] = assay: Induction of inner membrane permeabilization in Staphylococcus aureus ATCC6538 assessed as increase in red fluorescence at 5 ug/ml by PI staining based analysis; type: cell membranes; conditions: dose 5.0 µg/ml
Cell membrane [9] = assay: Induction of inner membrane permeabilization in methicillin resistant Staphylococcus aureus clinical isolate MRS153 assessed as increase in […] fluorescence at 5 ug/ml by PI staining based analysis; type: cell membranes; conditions: dose 5.0 µg/ml
Staphylococcus aureus [10] = assay: Antimicrobial activity against Staphylococcus aureus ATCC6538 assessed as increase in ROS levels measured upto 90 mins by H2DCFDA probe based flow cytometry; type: functional, organism-based
Staphylococcus aureus [11] = assay: Antimicrobial activity against methicillin resistant Staphylococcus aureus clinical isolate MRS153 assessed as increase in ROS levels measured upto 90 mins by H2DCFDA probe based flow cytometry; type: functional, organism-based
[12] = Toxicity in BALB/c mouse assessed as mouse death at 50 mg/kg, iv measured upto 8 days; type: organism-based; conditions: in vivo, 192 h, time < 8 day
[13] = Toxicity in BALB/c mouse assessed as as change in AST level at 25 to 50 mg/kg, iv; type: organism-based; conditions: in vivo, dose 25-50 mg/kg
Staphylococcus aureus [14] = assay: Upregulation of ABC transport family genes in Staphylococcus aureus ATCC6538 at 5 ug/ml incubated for 2 hrs by RNA sequencing analysis; type: functional; conditions: dose 5.0 µg/ml

O=C(CCC(F)(F)F)N(Cc1cc2ccccc2s1)c1cc(-c2noc(C(F)(F)F)n2)ccc1O
Activity (Staphylococcus aureus [1]): Active
HC50 at 1 h [2]: 2400 µg/mL
selectivity ratio [3]: > 100
MIC (Staphylococcus aureus [4]): 1 µg/mL (≈ 1.94 µM)
MIC (Staphylococcus aureus [5]): 1 µg/mL (≈ 1.94 µM)
Activity (Staphylococcus aureus [6]): Active
Activity (Staphylococcus aureus [7]): Active
Activity (Cell membrane [8]): Active
Activity (Cell membrane [9]): Active
Activity (Staphylococcus aureus [10]): Active
Activity (Staphylococcus aureus [11]): Active
Activity [12]: Non-Toxic
Activity [13]: Non-Toxic
Activity (Staphylococcus aureus [14]): Active
